Measured values: patent US20220160686A1, “MACROCYCLIC AZOLOPYRIDINE DERIVATIVES AS EED AND PRC2 MODULATORS” (Fulcrum Therapeutics, Inc., priority 2019, published 2022)
“And” between values parts separate entries of the source, which are not always exact repeats. Equal entries are not always repeated. Where two headings read alike, the source gives them in different places.

How the values were obtained:
[1] = target: T1, biotinylated AVI-tagged EED (76-441) (Homo sapiens, UniProt O75530); experiment: EED binding SPR assay; details: 1:1 binding model; read-out: KD, equilibrium dissociation constant as measured by surface plasmon resonance (SPR)
T1 construct: GST (N, cleaved yes); made in house; host or cells: E. coli BL21(DE3), co-expressed with pGro7
Method: Biotinylated AVI-tagged EED was produced using standard molecular biology techniques. A pGEX plasmid with a GST-preScission-cleavage-site-AVI-EED(76-441) sequence was placed into E. coli BL21(DE3) cells and co-expressed with pGro7. The E. coli were grown in shaker flasks in LB with ampicillin at 37° C. at 110 rpm to an OD600=0.7. At this time the temperature was lowered to 15° C. and IPTG was added to 0.3 mM. The cells were allowed to express overnight. Cells were then harvested.
For purification, the E. coli cell pellet was lysed into a buffer of 50 mM Tris pH 8.0, 500 mM NaCl, 5% glycerol and 5 mM DTT. The lysate was loaded onto a GSTrap FF column from GE Healthcare. After washing, the bound protein was eluted with 50 mM Tris pH 8.0, 500 mM NaCl, 5% glycerol, 5 mM DTT and 15 mM GSH. The collected fractions were combined and incubated with PreScission enzyme overnight at 4° C. The cleaved protein was then passed through a GSTrap FF column in a buffer of 50 mM Tris pH 8.0, 500 mM NaCl, 5% glycerol and 5 mM DTT. The cleaved protein was confirmed through mass spectrometry. The AVI-EED(76-441) was then buffer exchanged into 50 mM Bicine pH 8.3, 10 mM ATP, 10 mM magnesium acetate and 50 μM D-Biotin. 3 mg of BirA enzyme was added to the system and incubated at 4° C. for 2 hours to biotinylate the AVI-EED(76-441). The biotinylated-AVI-EED(76-441) was then buffer exchanged into 20 mM Tris pH 8.0 and 400 mM NaCl and passed through a size exclusion column of Superdex 200 16/60 Increase. The purified monomeric biotinylated-AVI-EED(76-441) was confirmed through SDS-PAGE, LC-MS and analytical size exclusion chromatography.
All surface plasmon resonance (SPR) assays were performed using a GE Biacore S200 utilizing GE Biotin CAPture chips. Capturing of CAP reagents was performed with a flow rate of 2 μL/min for 90 seconds. For protein capturing, a solution of 50 μg/mL of biotinylated AVI-tagged EED (76-441) in 10 mM HEPES pH 7.4, 150 mM NaCl, 0.05% Tween 20 and 2% DMSO (Running Buffer) was flowed over the chip with a flow rate of 5 μL/min for a contact time of 30 seconds. Final readings were 2200-2400 RU. For compounds, 7 concentrations were made with 3-dilutions using the Running Buffer for a total of 300 μL of each concentration in a 96-well microplate. During the binding experiments, a flow rate of […] was used for an association time of 90 seconds followed by a disassociation time of 180 seconds. The compartment temperature was set at 10° C. with the chip at 25° C. During regeneration the flow rate was set to 30 μL/min for 30 seconds. All fittings were done using a 1:1 binding model.

[2] = test system: human P-glycoprotein HEK cells (HEK-P-gp); experiment: H3K27me3 immunocytochemistry assay in P-gp expressing HEK293T cells, with or without elacridar; assay type: cell-based; details: Homo sapiens, 4 days compound treatment
Method: A plasmid encoding the human ABCB1 gene under the control of a CMV promoter was purchased from Origene (Cat #RC216080). The HEK293T cells were purchased from ATCC (Cat #CRL-3216) and were cultured for expansion in the recommended conditions. The HEK293T cells were transfected with 2 ug of the pCMV-ABCB1 plasmid using Lipofectamine 3000 following recommendations from the manufacturer (ThermoFisher Scientific, Cat #L3000008). After 24 h, cells were dissociated, and 5000 cells were seeded on a 10 cm tissue culture dish. On the next day, fresh media containing 5 nM Vinblastine (Sigma, Cat #V1377) was added, and media containing compound was replenished every 72 h. After surviving cells reached confluency, cells were passaged, and lines were maintained in the presence of 2.5 nM Vinblastine until further characterization.
P-gp expressing HEK293T, HUDEP2, and Human Mobilized Peripheral Blood Primary CD34+ cells were cultured for use in an H3K27me3 immunocytochemistry assay. HUDEP2 and Human Mobilized Peripheral Blood Primary CD34+ cells were cultured for use in an HbF immunocytochemistry assay. P-gp expressing HEK293T cells were maintained and passaged every 3-4 days by plating 300,000 viable cells in a T-25 culture flask containing 6 mLs of 293 Passaging Media comprised of DMEM (ThermoFisher #10566016), 10% fetal bovine serum (ThermoFisher #A3160502), 1% penicillin-streptomycin (ThermoFisher #15140122), and 2.5 nM Vinblastine (Sigma #V1377). To evaluate the inhibitory effect of the compounds of the present disclosure and their brain penetrant properties via P-gp mediated efflux, the H3K27me3 immunocytochemistry assay was conducted in the presence or absence of 250 nM of the P-gp inhibitor, elacridar. Poor brain penetrant compounds were expected to show higher potencies in the presence of Elacridar. However, brain penetrant compounds would show similar potencies irrespective of whether Elacridar is present or not. In these experiments plates without elacridar were seeded with P-gp expressing HEK293T cells at 1000 viable cells per well in a poly-d-lysine coated 384-well plate (Corning Cat #356697) in 45 μL of 293 Assay Media comprised of DMEM (ThermoFisher #10566016), 10% fetal bovine serum (ThermoFisher #A3160502), 1% penicillin-streptomycin (ThermoFisher #15140122). A replicate set of plates were seeded under the same conditions with 45 μL of 293 Assay Media supplemented with 250 nM of Elacridar to inhibit P-gp activity. Compounds were serially diluted at 10× concentration in 293 Media, and 5 μL transferred to their respective wells on both sets of plates for a total volume of 50 μL per well. The compound treated HEK293T cells were allowed to incubate for 4 days at 37° C., 85% relative humidity, and 5% CO2 before proceeding to ICC Fix and Stain protocol.
The Fix and Stain Protocol was the same for HEK293T, HUDEP2, and Primary CD34+ cell assays except the specific primary and secondary antibodies used for detection. Following 4 days of compound treatment, the respective plates were washed once with 25 μL of PBS (ThermoFisher #10010023) and fixed with 25 μL of 4% paraformaldehyde (ThermoFisher #28908) for 10 minutes at room temperature. The plates were then washed three times with 25 μL of PBS. Subsequent to that, the cells were permeabilized and blocked for 1 hour at room temperature in 25 μL of Perm/Block buffer comprised of IX PBS, 1% bovine serum albumin (ThermoFisher #A3294), 10% fetal bovine serum (ThermoFisher #A3160502), 0.3M glycine (Sigma #G7126), and 0.1% tween-20 (Sigma #P7949). This was followed by additional washing (three times) of the plates with 25 μL of 0.1% tween in PBS.
For the H3K27me3 assay, the cells were incubated overnight at 4° C. with 25 μL of H3K27me3 Primary Antibody (Cell Signaling #9733) diluted 1:200 in 0.1% tween-20 in PBS. […]

[3] = HEK293, 96 h, without elacridar, read-out: IC50, inhibitory activity on human P-glycoprotein HEK cells (HEK-P-gp)
[4] = HEK293, with 250 nM elacridar, read-out: IC50, inhibitory activity on human P-glycoprotein HEK cells (HEK-P-gp) pretreated with elacridar

T1 sequence (O75530 76-441 limits assumed): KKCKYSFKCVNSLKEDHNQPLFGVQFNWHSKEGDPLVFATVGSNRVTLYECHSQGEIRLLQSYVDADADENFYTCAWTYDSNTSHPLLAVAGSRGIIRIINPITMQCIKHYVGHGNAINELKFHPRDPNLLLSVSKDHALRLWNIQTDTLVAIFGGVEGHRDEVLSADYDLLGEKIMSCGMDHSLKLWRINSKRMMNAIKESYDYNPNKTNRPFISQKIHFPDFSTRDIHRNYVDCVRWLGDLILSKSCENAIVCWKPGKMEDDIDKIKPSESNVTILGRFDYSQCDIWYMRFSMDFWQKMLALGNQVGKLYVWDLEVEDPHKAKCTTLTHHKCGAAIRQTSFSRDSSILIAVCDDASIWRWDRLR

Row | Structure (SMILES) | Kd [1] | IC50 [2, 3] | IC50 [2, 4]
1 | COc1cccnc1-c1cc2c(n3cnnc13)NCc1c(F)ccc3c1[C@@H](CO3)CO2 [Compound 159, (S)-12-fluoro-4-(3-methoxypyridin-2-yl)-7a,8,13,14-tetrahydro-7H-[1,2,4]triazolo[4′,3′:1,6]pyrido[3,2-b]benzofuro[4,3-fg][1,4]oxazonine] | 10 to 50 nM | > 500 nM | > 500 nM
2 | OCc1ncccc1-c1cc2c(n3cnnc13)NCc1c(F)ccc3c1C(CO3)CO2 [Compound 195, (S)-(3-(12-fluoro-7a,8,13,14-tetrahydro-7H-[1,2,4]triazolo[4′,3′:1,6]pyrido[3,2-b]benzofuro[4,3-fg][1,4]oxazonin-4-yl)pyridin-2-yl)methanol] | < 2.5 nM | < 25 nM | 50 to 100 nM
3 | Fc1ccc2c3c1CNc1c(cc(-c4ccc(N5CCOCC5)nc4)c4nncn14)OC[C@H]3CO2 [Example 116] | < 2.5 nM | > 500 nM | 100 to 500 nM
4 | Fc1ccc2c3c1CNc1c(cc(-c4cnco4)c4nncn14)OC[C@@H]3CO2 [Compound 188, (S)-12-fluoro-4-(oxazol-5-yl)-7a,8,13,14-tetrahydro-7H-[1,2,4]triazolo[4′,3′:1,6]pyrido[3,2-b]benzofuro[4,3-fg][1,4]oxazonine] | < 2.5 nM | 100 to 500 nM | 100 to 500 nM
5 | COc1ncc(F)cc1-c1cc2c(n3cnnc13)NCc1c(F)ccc3c1[C@H](CO3)CO2 [Example 111] | 2.5 to 5 nM | 100 to 500 nM | 100 to 500 nM
6 | Cc1nc(C2CC2)ncc1-c1cc2c(n3cnnc13)NCc1c(F)ccc3c1[C@@H](CO3)CO2 [Compound 190, (S)-4-(2-cyclopropyl-4-methylpyrimidin-5-yl)-12-fluoro-7a,8,13,14-tetrahydro-7H-[1,2,4]triazolo[4′,3′:1,6]pyrido[3,2-b]benzofuro[4,3-fg][1,4]oxazonine] | < 2.5 nM | < 25 nM | < 25 nM
7 | Cn1nc(O)cc1-c1cc2c(n3cnnc13)NCc1c(F)ccc3c1C(CO3)CO2 [Compound 197, (S)-5-(12-fluoro-7a,8,13,14-tetrahydro-7H-[1,2,4]triazolo[4′,3′:1,6]pyrido[3,2-b]benzofuro[4,3-fg][1,4]oxazonin-4-yl)-1-methyl-1H-pyrazol-3-ol] | 10 to 50 nM and < 2.5 nM | < 25 nM | 50 to 100 nM
8 | Cc1nccc(O)c1-c1cc2c(n3cnnc13)NCc1c(F)ccc3c1C(CO3)CO2 [Compound 192, (S)-3-(12-fluoro-7a,8,13,14-tetrahydro-7H-[1,2,4]triazolo[4′,3′:1,6]pyrido[3,2-b]benzofuro[4,3-fg][1,4]oxazonin-4-yl)-2-methylpyridin-4-ol] | 10 to 50 nM | > 500 nM | > 500 nM
9 | Cc1nc(O)ccc1-c1cc2c(n3cnnc13)NCc1c(F)ccc3c1[C@@H](CO3)CO2 [Compound 187, (S)-5-(12-fluoro-7a,8,13,14-tetrahydro-7H-[1,2,4]triazolo[4′,3′:1,6]pyrido[3,2-b]benzofuro[4,3-fg][1,4]oxazonin-4-yl)-6-methylpyridin-2-ol] | < 2.5 nM | > 500 nM | > 500 nM
10 | Cc1cc(Cl)cnc1-c1cc2c(n3cnnc13)NCc1c(F)ccc3c1[C@@H](CO3)CO2 [Compound 166, (S)-4-(5-chloro-3-methylpyridin-2-yl)-12-fluoro-7a,8,13,14-tetrahydro-7H-[1,2,4]triazolo[4′,3′:1,6]pyrido[3,2-b]benzofuro[4,3-fg][1,4]oxazonine] | 2.5 to 5 nM | > 500 nM | > 500 nM

Further lines, with some results ahead:

Row | Kd [1] | Structure (SMILES) | IC50 [2, 3] | IC50 [2, 4]
11 | < 2.5 nM | CN(C)c1ncc(-c2cc3c(n4cnnc24)NCc2c(F)ccc4c2[C@H](CO4)CO3)cn1 [Example 108] | > 500 nM | > 500 nM
12 | 10 to 50 nM | Fc1ccc2c3c1CNc1c(cc(-c4ccc(C(F)(F)F)cn4)c4nncn14)OCC3CO2 (stereo not drawn) [Example 113] | > 500 nM | > 500 nM
13 | < 2.5 nM | Fc1ccc2c3c1CNc1c(cc(-c4ncncc4Cl)c4nncn14)OC[C@@H]3CO2 [Compound 163, (S)-4-(5-chloropyrimidin-4-yl)-12-fluoro-7a,8,13,14-tetrahydro-7H-[1,2,4]triazolo[4′,3′:1,6]pyrido[3,2-b]benzofuro[4,3-fg][1,4]oxazonine] | 100 to 500 nM | 25 to 50 nM
14 | 5 to 10 nM | Cc1cc(-c2cc3c(n4cnnc24)NCc2c(F)ccc4c2[C@@H](CO4)CO3)ncn1 [Compound 161, (S)-12-fluoro-4-(6-methylpyrimidin-4-yl)-7a,8,13,14-tetrahydro-7H-[1,2,4]triazolo[4′,3′:1,6]pyrido[3,2-b]benzofuro[4,3-fg][1,4]oxazonine] | > 500 nM | > 500 nM
15 | < 2.5 nM | Fc1ccc2c3c1CNc1c(cc(-c4cnc(C(F)(F)F)nc4)c4nncn14)OC[C@H]3CO2 [Example 114] | 100 to 500 nM | 100 to 500 nM
16 | < 2.5 nM | CCOc1ncc(-c2cc3c(n4cnnc24)NCc2c(F)ccc4c2[C@H](CO4)CO3)cn1 [Example 109] | 100 to 500 nM | 100 to 500 nM
17 | 2.5 to 5 nM | Fc1ccc2c3c1CNc1c(cc(-c4ccc(C(F)(F)F)nc4)c4nncn14)OC[C@H]3CO2 [Example 112] | 100 to 500 nM | 100 to 500 nM
